Experimental data: article PMC12152147, “DDB1 engagement defines the selectivity of S656 analogs for cyclin K degradation over CDK inhibition” (EMBO Reports, 2025)
Values after ≈ are worked out from the molar mass of the structure shown. Values joined by “and” are separate entries in the source; they are usually repeats but may differ in a detail not shown here. Identical values can stand only once. Like-named read-outs stand apart in the source and are kept apart here.

Assays:
[1] = test system: OCI-AML5 Cas9 cells (sgDDB1, sgAAVS1); test: Dose response in inducible OCI-AML5 Cas9 cells expressing sgRNAs targeting DDB1 or AAVS1; type: cell-based, H. sapiens; conditions: 4 days, read-out: S656 IC50
Procedure: Dose-response assays in primary AML specimens were performed as in chemical screen (see above) with the exception that compounds were tested in serial dilution (8 dilutions, 1:4, 10 μM down to 0.5 nM). Dose-response assays in OCI-AML5 cell line were conducted similarly with the following modifications: 300 cells per well were seeded in 50 μL of cell line media and cell viability was evaluated after 4 days in culture.
Clonal OCI-AML5 cells expressing an inducible Cas9 (Addgene plasmid #50661 (Wang et al, [2014])) were generated and then infected with lentiviruses for constitutive expression of sgRNAs targeting AAVS1 control region (Addgene plasmid #50662 (Wang et al, [2014])) or DDB1 #1 ([…]); #2 ([…]). Cas9 expression is induced by doxycycline (2 μg/mL) and experiments performed subsequently.

[2] = test system: cyclin K, CDK12, RNA polymerase II phospho-ser2, MYC, MCL-1 protein levels; test: Immunoblot analysis of protein levels; type: cell-based, H. sapiens; conditions: for RNA polymerase II phospho-ser2 level (immunoblot): OCI-AML5, 5 μM for 5 h
Procedure: Total proteins were extracted using RIPA buffer (20 mM Tris-HCl pH 7.4, 150 mM NaCl, 5 mM MgCl2, 5 mM EGTA, 60 mM β-glycerophosphate, 0.1% NP40, 0.1% Triton X-114, 1 mM DTT) supplemented with protease inhibitors (cOmplete, EDTA-free protease inhibitor tablets), and quantified by the bicinchoninic acid (BCA) method using a BSA standard curve. Proteins were resolved by SDS-PAGE, transferred onto PVDF membrane, blocked with 5% milk and probed with primary (overnight, 4 °C) and secondary (1 h, room temperature) antibodies.

CDK12-DDB1 interaction = target: T1, CDK12-DDB1 interaction (Homo sapiens, UniProt Q16531+Q9NYV4); test: NanoLuc Binary Technology CDK12-DDB1 interaction in HEK293 cells; type: cell-based, H. sapiens; conditions: HEK293, monitored over 1 h
T1 construct: The kinase domain of CDK12 was fused to the Large BiT (LgBiT); expressed in transfected cells; host or cells: HEK293
T1 sequence (Q9NYV4 727-1020 limits assumed): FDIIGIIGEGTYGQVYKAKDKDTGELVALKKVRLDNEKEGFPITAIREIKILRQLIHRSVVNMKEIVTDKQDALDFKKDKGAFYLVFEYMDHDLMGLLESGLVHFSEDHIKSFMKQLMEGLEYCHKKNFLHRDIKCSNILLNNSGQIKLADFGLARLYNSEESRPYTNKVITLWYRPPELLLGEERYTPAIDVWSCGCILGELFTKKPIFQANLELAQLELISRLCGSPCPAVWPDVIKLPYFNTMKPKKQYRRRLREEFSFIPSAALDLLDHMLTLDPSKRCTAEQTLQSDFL
T1 sequence (Q16531 whole entry, the tested form may be a part): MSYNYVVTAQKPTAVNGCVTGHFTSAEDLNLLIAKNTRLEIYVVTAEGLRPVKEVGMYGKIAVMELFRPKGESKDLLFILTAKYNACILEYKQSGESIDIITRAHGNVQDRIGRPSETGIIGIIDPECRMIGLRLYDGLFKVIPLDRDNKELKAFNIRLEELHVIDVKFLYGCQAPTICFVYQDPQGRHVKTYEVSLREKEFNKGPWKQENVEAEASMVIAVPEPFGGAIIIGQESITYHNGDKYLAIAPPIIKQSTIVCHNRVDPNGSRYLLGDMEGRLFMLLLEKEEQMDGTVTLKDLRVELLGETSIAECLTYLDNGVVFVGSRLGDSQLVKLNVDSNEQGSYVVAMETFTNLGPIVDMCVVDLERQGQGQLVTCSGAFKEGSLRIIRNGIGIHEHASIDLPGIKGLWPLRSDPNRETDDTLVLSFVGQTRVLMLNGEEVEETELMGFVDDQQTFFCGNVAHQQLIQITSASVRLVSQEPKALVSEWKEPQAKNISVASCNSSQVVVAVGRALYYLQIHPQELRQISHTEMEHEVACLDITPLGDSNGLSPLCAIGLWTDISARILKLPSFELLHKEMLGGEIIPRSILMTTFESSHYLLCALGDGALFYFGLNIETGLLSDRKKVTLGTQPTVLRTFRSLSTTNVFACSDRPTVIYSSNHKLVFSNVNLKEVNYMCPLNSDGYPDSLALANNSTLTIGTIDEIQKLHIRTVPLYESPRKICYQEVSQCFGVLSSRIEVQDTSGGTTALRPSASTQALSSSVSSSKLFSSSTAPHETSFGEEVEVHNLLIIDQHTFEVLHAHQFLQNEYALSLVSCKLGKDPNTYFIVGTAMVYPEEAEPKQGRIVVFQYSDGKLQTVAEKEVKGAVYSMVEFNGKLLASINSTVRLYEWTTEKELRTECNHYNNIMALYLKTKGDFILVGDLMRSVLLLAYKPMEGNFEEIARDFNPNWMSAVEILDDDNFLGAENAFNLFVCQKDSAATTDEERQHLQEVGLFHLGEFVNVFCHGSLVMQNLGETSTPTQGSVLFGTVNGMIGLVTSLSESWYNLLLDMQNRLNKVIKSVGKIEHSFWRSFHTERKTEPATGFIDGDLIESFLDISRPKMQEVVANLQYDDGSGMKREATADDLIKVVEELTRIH
T1 sequence (O75909 whole entry partner, the tested form may be a part): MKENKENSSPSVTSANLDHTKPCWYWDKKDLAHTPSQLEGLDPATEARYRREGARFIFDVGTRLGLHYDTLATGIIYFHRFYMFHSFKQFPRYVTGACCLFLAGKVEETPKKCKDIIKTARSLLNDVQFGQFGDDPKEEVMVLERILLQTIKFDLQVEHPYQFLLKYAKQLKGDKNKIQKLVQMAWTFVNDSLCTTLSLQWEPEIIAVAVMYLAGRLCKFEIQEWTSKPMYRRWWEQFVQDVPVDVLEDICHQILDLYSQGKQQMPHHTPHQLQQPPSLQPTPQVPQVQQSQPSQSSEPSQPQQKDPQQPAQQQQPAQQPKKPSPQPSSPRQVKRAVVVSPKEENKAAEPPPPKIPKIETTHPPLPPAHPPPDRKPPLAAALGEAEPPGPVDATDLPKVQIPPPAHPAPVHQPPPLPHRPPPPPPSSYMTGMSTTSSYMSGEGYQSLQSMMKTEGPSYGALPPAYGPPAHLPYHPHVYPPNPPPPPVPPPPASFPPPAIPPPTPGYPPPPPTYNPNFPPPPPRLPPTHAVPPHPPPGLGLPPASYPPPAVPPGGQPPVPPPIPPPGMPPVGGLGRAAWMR
Description: Using the NanoBiT PPI MCS starter system vectors, we generated fusion proteins of CDK12 and DDB1 to monitor their interaction in living cells through a structural complementation reporter system for the NanoLuc. The kinase domain of CDK12 was fused to the Large BiT (LgBiT) while DDB1 was fused to the Small Bit (SmBiT), both in N-terminal. The primers used to clone CDK12 and DDB1 in NanoBit vectors by Gibson assembly are as follows: N-LgBiT-CDK12KD-F: […]; N-LgBiT-CDK12KD-STOP-R: […]; N-SmBiT-DDB1-F: […]; N-SmBiT-DDB1-GA-R: […].
Both CDK12-LgBiT and DDB1-SmBiT generated plasmids were then transfected in HEK293 cells using JetPrime transfection reagent according to the manufacturer’s instructions and plated 24 h later in white 384-well plate (20,000 cells /well). After 4 h, 5× D-blue substrate was added to each well, incubated for 5 min at obscurity, prior to addition of compounds of interest at increasing concentrations. Luminescence was monitored for 1 h using the Neo Synergy BioTek plate reader.

[3] = Kinetic solubility measurement (HPLC-UV); type: physicochemical; conditions: aqueous buffer, kinetic from dmso stock, αMEM media, nominal 200 μM, room temperature, triplicate
Procedure: A 40 μL aliquot of a 10 mM DMSO stock solution of S656 was prepared and diluted in αMEM media to achieve a nominal concentration of 200 μM. The samples were incubated with stirring at 1100 rpm for 24 h at room temperature. From the incubation mixture, 20 μL was pipetted, rinsed in acetonitrile (MeCN) for 5 s, then in water for 5 s. Subsequently, 10 μL was discarded, and the remaining 10 μL was transferred to a mixture containing 10 μL of PBS, 980 μL of quenched solution, and 10 μL of DMSO. Analysis was performed using HPLC equipped with a UV-visible detector (HPLC-UV). Chromatography was conducted under reverse-phase conditions with a column temperature of 55 °C on a Waters XSelect HSS T3 column (2.5 μm, 2.1 ×50 mm). The aqueous solvent (solvent A) was ultrapure water with 0.1% formic acid, and the organic eluent (solvent B) was acetonitrile. The injection volume was 4 μL, and the flow rate was set at 0.6 mL/min.

[4] = test system: BRCA2, ATR and BLM mRNA expression; test: qPCR of DDR transcripts in OCI-AML5; type: cell-based, H. sapiens; conditions: OCI-AML5, 4 h; S656 5 μM, THZ531 200 nM; normalized to HPRT, DMSO = 1
Procedure: RNA was harvested in Trizol (ThermoFisher) and isolated according to manufacturer’s protocol and reverse transcribed using MMLV reverse transcriptase and random primers (ThermoFisher). Quantitative PCR was performed using validated assays designed for the Universal Probe Library (Roche) on the Viia7 (Applied Biosystems). qPCR primer sequences are available in Table EV2. Relative quantity of target is normalized to HPRT and compared to normalized expression of control cells.

[5] = OCI-AML5, increasing concentrations, 6 h

IC50 ([1]; Homo sapiens, OCI-AML-5, 96 h, sgAAVS + DOX) [nM] | IC50 ([1]; Homo sapiens, OCI-AML-5, 96 h, sgAAVS - DOX) [nM] | IC50 ([1]; Homo sapiens, OCI-AML-5, 96 h, sgDDB1 #1 + DOX) [nM] | IC50 ([1]; Homo sapiens, OCI-AML-5, 96 h, sgDDB1 #1 - DOX) [nM] | IC50 ([1]; Homo sapiens, OCI-AML-5, 96 h, sgDDB1 #2 + DOX) [nM] | IC50 ([1]; Homo sapiens, OCI-AML-5, 96 h, sgDDB1 #2 - DOX) [nM] | IC50 ([1]; sgAAVS + DOX) | IC50 ([1]; sgAAVS - DOX) | IC50 ([1]; sgDDB1 #1 + DOX) | IC50 ([1]; sgDDB1 #1 - DOX) | IC50 ([1]; sgDDB1 #2 + DOX) | IC50 ([1]; sgDDB1 #2 - DOX) | cyclin K protein level (immunoblot) ([2]; 3 primary AML specimens, 5 μM, 5 hours) | Mcl-1 protein and c-MYC level (immunoblot) ([2]; OCI-AML5, 5 μM for 4 h) | cyclin K protein level (immunoblot) [2, 5] | solubility kinetic at 24 h [3] [µM] | SMILES | RNA polymerase II phospho-ser2 level (immunoblot) [2] | CDK12-DDB1 interaction in live cells (NanoLuc luminescence) (CDK12-DDB1 interaction) | ATR mRNA [4] | BRCA2 mRNA [4]
923 | 896 | 2170 | 1190 | 2440 | 936 | 1130 nM and 960 nM | 945 nM and 735 nM | 2090 nM and 1910 nM | 1020 nM and 964 nM | 2380 nM and 1630 nM | 1070 nM and 975 nM | strong depletion of cyclin K | substantial depletion | dose-dependent cyclin K depletion | 23 (≈ 8.84 µg/mL) | CN(C)c1ccc(CC(=O)Nc2ncc(SCc3cccnc3)s2)cc1 [S656] | reduced levels of RNA polymerase II phospho-ser2 | efficiently induced an interaction between CDK12 and DDB1 | 0.3 and 0.2683 and 0.3666 | 0.127 and 0.1345 and 0.2247
– | – | – | – | – | – | – | – | – | – | – | – | – | – | – | – | CN(C)C/C=C/C(=O)Nc1ccc(C(=O)N2CCC[C@@H](Nc3ncc(Cl)c(-c4c[nH]c5ccccc45)n3)C2)cc1 [THZ531] | – | not detectable | – | –
– | – | – | – | – | – | – | – | – | – | – | – | – | – | dose-dependent cyclin K depletion | – | Cc1cccc(Nc2nc(CC(=O)Nc3ncc(C)s3)cs2)n1 [HQ461] | reduced levels of RNA polymerase II phospho-ser2 | – | – | –
